Results: the supplement of paper PMC12463676, “Small-molecule dissolution of stress granules by redox modulation benefits ALS models” (Nature Chemical Biology, 2025)

compound: O=[As]([O-])(O)O.[K+] [potassium arsenate]; experiment: thermal stability z-score vs DMSO; higher = more thermally stabilized by treatment; settings: HeLa; arsenate concentration 1 mM
Procedure: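 Cellular thermal proteome profiling in HeLa cells treated with 1 mM arsenate for 1 h (DMSO pretreatment), heated to ten temperatures (37-66.3 °C). Soluble protein was quantified by TMT mass spectrometry relative to DMSO controls; the thermal stability score was transformed to a z-score; mean of n = 3 experiments.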
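Note: each temperature applied for 3 min, abundance score taken as mean log2 fold change at the two lowest temperatures, z-score obtained by mean subtraction and division by SD.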

Sequence of UniProt P16278 (P16278 whole entry): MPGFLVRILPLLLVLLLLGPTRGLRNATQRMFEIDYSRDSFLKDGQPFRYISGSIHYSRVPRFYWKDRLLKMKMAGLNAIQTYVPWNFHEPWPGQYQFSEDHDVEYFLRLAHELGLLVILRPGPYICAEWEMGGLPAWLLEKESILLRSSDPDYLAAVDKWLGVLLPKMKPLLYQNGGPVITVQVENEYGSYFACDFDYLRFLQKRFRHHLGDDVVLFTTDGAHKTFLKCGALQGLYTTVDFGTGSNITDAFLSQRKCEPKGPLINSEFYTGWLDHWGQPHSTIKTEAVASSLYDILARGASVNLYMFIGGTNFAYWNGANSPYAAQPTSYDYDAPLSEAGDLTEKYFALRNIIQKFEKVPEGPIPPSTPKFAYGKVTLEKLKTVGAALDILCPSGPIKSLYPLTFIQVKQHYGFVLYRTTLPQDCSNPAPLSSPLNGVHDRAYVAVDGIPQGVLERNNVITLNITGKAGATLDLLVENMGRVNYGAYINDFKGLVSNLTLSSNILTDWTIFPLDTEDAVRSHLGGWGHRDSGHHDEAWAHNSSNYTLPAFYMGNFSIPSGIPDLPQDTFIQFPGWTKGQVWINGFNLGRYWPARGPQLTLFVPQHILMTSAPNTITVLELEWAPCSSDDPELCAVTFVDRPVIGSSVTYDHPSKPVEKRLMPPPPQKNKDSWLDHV
Sequence of UniProt Q15293 (Q15293 whole entry): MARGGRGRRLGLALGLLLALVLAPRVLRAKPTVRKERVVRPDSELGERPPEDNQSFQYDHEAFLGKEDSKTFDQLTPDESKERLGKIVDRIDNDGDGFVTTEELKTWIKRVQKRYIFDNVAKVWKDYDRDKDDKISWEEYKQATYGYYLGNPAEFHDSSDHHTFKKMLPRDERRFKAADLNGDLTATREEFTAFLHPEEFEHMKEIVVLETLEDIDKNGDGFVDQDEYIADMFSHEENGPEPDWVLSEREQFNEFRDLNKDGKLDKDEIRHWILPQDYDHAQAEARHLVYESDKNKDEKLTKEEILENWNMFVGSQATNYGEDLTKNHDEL
Sequence of UniProt Q9H553 (Q9H553 whole entry): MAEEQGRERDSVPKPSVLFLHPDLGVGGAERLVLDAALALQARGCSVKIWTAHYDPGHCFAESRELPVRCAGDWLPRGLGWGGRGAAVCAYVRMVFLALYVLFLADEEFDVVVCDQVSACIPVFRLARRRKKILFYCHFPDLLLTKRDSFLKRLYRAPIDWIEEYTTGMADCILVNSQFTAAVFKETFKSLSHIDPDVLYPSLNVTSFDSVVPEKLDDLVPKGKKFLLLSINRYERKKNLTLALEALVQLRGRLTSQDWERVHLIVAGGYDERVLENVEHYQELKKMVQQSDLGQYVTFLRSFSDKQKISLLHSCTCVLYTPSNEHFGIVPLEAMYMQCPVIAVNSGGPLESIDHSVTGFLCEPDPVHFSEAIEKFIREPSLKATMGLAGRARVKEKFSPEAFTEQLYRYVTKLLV
Sequence of UniProt Q8NBN3 (Q8NBN3 whole entry): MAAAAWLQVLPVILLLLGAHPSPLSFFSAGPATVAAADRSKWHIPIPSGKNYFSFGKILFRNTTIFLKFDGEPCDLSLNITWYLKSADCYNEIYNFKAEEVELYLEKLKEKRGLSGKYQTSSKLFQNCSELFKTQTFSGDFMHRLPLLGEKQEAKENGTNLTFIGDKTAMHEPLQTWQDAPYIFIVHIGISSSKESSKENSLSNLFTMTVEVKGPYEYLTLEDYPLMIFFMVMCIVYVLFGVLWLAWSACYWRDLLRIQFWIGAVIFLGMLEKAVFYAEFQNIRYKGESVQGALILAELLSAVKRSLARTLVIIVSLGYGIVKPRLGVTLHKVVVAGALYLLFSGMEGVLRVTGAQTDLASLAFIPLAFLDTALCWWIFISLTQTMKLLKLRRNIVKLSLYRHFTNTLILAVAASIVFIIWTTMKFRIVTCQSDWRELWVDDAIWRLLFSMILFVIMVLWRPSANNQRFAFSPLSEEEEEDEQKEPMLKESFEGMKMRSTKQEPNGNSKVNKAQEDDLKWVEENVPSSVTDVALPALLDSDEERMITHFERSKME
Sequence of UniProt P40189 (P40189 whole entry): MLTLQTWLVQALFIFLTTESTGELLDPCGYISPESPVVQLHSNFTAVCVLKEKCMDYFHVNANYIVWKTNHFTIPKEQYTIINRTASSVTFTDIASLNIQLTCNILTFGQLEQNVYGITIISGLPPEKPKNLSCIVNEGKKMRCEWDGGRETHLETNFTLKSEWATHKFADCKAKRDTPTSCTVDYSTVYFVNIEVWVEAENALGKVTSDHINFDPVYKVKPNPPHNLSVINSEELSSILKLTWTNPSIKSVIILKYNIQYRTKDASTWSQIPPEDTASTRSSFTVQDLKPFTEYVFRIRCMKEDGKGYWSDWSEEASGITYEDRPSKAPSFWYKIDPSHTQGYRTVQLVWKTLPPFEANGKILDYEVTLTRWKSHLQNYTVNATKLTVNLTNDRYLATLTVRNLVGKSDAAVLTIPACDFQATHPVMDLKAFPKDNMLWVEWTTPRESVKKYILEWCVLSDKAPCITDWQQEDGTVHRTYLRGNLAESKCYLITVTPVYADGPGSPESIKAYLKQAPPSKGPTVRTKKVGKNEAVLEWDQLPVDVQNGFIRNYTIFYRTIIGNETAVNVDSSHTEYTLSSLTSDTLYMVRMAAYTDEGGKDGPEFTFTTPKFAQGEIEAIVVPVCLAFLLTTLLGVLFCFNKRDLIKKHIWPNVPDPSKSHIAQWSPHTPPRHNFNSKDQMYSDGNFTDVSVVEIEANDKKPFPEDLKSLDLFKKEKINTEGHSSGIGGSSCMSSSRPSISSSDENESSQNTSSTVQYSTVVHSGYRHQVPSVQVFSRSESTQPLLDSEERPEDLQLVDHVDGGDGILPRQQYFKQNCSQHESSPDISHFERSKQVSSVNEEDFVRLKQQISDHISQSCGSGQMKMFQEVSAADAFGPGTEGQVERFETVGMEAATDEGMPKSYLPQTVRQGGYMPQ
Sequence of UniProt O95674 (O95674 whole entry): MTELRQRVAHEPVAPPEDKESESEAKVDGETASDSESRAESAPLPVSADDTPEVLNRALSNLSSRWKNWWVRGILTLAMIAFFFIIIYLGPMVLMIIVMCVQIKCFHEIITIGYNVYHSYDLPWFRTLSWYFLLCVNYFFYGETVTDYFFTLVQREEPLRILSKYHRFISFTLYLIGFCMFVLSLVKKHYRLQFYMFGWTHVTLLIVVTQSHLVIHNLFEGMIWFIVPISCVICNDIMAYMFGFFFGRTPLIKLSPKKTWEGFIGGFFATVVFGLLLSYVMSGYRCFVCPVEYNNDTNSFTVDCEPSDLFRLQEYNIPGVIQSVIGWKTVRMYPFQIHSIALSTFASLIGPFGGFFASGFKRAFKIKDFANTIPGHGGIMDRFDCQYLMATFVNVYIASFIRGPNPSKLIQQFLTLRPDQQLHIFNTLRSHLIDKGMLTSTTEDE
Sequence of UniProt A8MPS7 (A8MPS7 whole entry): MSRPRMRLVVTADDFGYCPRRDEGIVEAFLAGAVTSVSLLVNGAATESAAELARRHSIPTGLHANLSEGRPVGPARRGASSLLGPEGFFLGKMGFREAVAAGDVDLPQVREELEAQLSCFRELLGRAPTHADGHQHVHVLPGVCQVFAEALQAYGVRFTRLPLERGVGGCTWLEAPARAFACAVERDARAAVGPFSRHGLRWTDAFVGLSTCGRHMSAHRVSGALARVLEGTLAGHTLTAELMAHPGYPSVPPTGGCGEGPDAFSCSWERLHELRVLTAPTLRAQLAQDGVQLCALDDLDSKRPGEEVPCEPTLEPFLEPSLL
Sequence of UniProt Q86U44 (Q86U44 whole entry): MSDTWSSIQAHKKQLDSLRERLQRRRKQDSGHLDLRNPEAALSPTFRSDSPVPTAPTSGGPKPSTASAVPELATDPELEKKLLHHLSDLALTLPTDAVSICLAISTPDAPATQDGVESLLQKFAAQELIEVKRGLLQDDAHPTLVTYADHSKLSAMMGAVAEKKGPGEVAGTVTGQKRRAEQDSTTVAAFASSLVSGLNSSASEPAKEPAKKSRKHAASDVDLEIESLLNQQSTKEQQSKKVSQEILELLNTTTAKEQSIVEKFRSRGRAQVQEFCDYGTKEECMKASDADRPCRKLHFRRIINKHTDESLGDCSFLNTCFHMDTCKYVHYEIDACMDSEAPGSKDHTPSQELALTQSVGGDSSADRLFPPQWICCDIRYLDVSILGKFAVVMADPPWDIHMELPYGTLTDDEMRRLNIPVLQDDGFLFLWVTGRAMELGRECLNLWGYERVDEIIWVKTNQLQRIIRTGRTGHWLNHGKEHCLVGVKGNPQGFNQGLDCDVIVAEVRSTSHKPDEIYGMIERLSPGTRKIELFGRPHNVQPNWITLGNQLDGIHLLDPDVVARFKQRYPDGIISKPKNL
Sequence of UniProt Q9Y3C6 (Q9Y3C6 whole entry): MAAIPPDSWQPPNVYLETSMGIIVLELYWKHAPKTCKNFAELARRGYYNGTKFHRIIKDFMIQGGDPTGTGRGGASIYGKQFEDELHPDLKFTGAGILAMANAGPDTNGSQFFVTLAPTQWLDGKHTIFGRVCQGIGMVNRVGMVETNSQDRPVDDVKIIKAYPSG
Sequence of UniProt Q9H6Q4 (Q9H6Q4 whole entry): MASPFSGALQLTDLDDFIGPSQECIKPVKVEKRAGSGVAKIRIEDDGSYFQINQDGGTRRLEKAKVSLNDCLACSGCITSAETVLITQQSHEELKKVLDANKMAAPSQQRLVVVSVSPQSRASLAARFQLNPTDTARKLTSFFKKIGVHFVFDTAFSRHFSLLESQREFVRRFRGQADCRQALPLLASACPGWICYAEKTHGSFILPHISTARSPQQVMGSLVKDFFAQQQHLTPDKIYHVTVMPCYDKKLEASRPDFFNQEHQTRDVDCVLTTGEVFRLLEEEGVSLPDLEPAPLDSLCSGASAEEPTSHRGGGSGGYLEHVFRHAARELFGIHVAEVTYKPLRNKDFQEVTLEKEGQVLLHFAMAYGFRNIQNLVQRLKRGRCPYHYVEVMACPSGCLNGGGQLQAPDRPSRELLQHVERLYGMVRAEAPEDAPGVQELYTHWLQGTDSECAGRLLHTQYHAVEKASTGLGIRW

Target	thermal stability z-score
DUSP3 (UniProt P51452)	-0.191
NARFL (UniProt Q9H6Q4)	-0.0417
PPIL1 (UniProt Q9Y3C6)	-0.489
NCOA7 (UniProt Q8NI08)	0.0655
INPPL1 (UniProt O15357)	0.0386
DEPDC7 (UniProt Q96QD5)	-0.221
KIF21A (UniProt Q7Z4S6)	0.269
HDAC2 (UniProt Q92769)	-0.0176
PELO (UniProt Q9BRX2)	-0.0213
CASP2 (UniProt P42575)	-1
YDJC (UniProt A8MPS7)	-1.04
PPAT (UniProt Q06203)	-0.0713
CDS2 (UniProt O95674)	-0.43
PSME4 (UniProt Q14997)	-0.412
DDB1 (UniProt Q16531)	-0.468
METTL3 (UniProt Q86U44)	0.165
FAM114A2 (UniProt Q9NRY5)	0.222
GLB1 (UniProt P16278)	-0.438
IL6ST (UniProt P40189)	-1.84
PSPH (UniProt P78330)	0.056
BID (UniProt P55957)	0.587
ADPGK (UniProt Q9BRR6)	-0.315
SERPINB4 (UniProt P48594)	-0.0226
MYO1E (UniProt Q12965)	-0.8

Target	thermal stability z-score
ALG2 (UniProt Q9H553)	-0.992
MPP6	-0.29
TTC27 (UniProt Q6P3X3)	0.24
LRRC8E (UniProt Q6NSJ5)	-0.237
TMEM87A (UniProt Q8NBN3)	0.645
SPAG9 (UniProt O60271)	0.732
MMS19 (UniProt Q96T76)	-0.949
H2AFY (UniProt O75367)	0.327
ANAPC1 (UniProt Q9H1A4)	0.0453
RCN1 (UniProt Q15293)	0.52
TLCD1 (UniProt Q96CP7)	0.587
U2SURP (UniProt O15042)	0.507
GNPDA2 (UniProt Q8TDQ7)	-0.0337
EEF1E1 (UniProt O43324)	0.997
SP1 (UniProt P08047)	0.789
ABHD17C (UniProt Q6PCB6)	-0.29
RB1CC1 (UniProt Q8TDY2)	0.893
SLC25A12 (UniProt O75746)	-0.0761
ATP2B1 (UniProt P20020)	-0.146
ELMO2 (UniProt Q96JJ3)	0.457
DPP9 (UniProt Q86TI2)	0.0941
EFHD2 (UniProt Q96C19)	-0.223
PPFIBP1 (UniProt Q86W92)	0.32
PEX6 (UniProt Q13608)	0.938

Target	thermal stability z-score
NKIRAS1 (UniProt Q9NYS0)	-0.0379
ERCC2 (UniProt P18074)	0.0533
DCAF15 (UniProt Q66K64)	-0.174
ATF6 (UniProt P18850)	-0.177
RAB43 (UniProt Q86YS6)	1.35
C11ORF68 (UniProt Q9H3H3)	0.538
DDX50 (UniProt Q9BQ39)	-0.49
NUP153 (UniProt P49790)	3.83
POLD3 (UniProt Q15054)	-0.487
WAC (UniProt Q9BTA9)	0.126
KLHDC4 (UniProt Q8TBB5)	-0.251
MED18 (UniProt Q9BUE0)	-0.382
HNRNPH1 (UniProt P31943)	-0.9
HM13 (UniProt Q8TCT9)	0.759
SHTN1 (UniProt A0MZ66)	1.25
NME1|NME2	0.487
DNAJC13 (UniProt O75165)	0.201
MYO5C (UniProt Q9NQX4)	0.0128
ATG4B (UniProt Q9Y4P1)	-0.73
ZFYVE19 (UniProt Q96K21)	-3.34
ATP5C1 (UniProt P36542)	-0.252
SND1 (UniProt Q7KZF4)	-1.08
IP6K1 (UniProt Q92551)	-0.179

compound: NC(=O)CCCCC1CCSS1 [lipoamide]; experiment: as above; settings: HeLa; lipoamide concentration 100 µM; arsenate co-treatment: 1 mM arsenate 1 h
Procedure: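 Cellular thermal proteome profiling in HeLa cells. Cells were treated with 100 µM lipoamide for 1 h, with or without 1 mM arsenate for a further 1 h, then heated to ten temperatures (37-66.3 °C), and soluble protein was quantified by TMT mass spectrometry relative to 0.1% DMSO controls. The thermal stability score (sum of log2 fold changes minus the abundance score) was transformed to a z-score; mean of n = 3 experiments.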

Target	thermal stability z-score
DUSP3 (UniProt P51452)	0.504
NARFL (UniProt Q9H6Q4)	0.327
PPIL1 (UniProt Q9Y3C6)	-0.0684
NCOA7 (UniProt Q8NI08)	-0.676
INPPL1 (UniProt O15357)	-0.527
DEPDC7 (UniProt Q96QD5)	-0.328
KIF21A (UniProt Q7Z4S6)	-0.586
HDAC2 (UniProt Q92769)	4.76
PELO (UniProt Q9BRX2)	-0.811
CASP2 (UniProt P42575)	-0.172
YDJC (UniProt A8MPS7)	-0.851
PPAT (UniProt Q06203)	0.306
CDS2 (UniProt O95674)	-0.807
PSME4 (UniProt Q14997)	-0.196
DDB1 (UniProt Q16531)	-0.479
METTL3 (UniProt Q86U44)	-0.16
FAM114A2 (UniProt Q9NRY5)	-0.354
GLB1 (UniProt P16278)	-0.564

Target	thermal stability z-score
IL6ST (UniProt P40189)	-1.74
PSPH (UniProt P78330)	0.359
BID (UniProt P55957)	0.895
ADPGK (UniProt Q9BRR6)	-1.02
SERPINB4 (UniProt P48594)	0.303
MYO1E (UniProt Q12965)	0.918
ALG2 (UniProt Q9H553)	-1.02
MPP6	-0.288
TTC27 (UniProt Q6P3X3)	-0.686
LRRC8E (UniProt Q6NSJ5)	0.43
TMEM87A (UniProt Q8NBN3)	0.451
SPAG9 (UniProt O60271)	0.012
MMS19 (UniProt Q96T76)	-0.784
H2AFY (UniProt O75367)	0.112
ANAPC1 (UniProt Q9H1A4)	0.11
RCN1 (UniProt Q15293)	-1.02
TLCD1 (UniProt Q96CP7)	-0.0961
